Target: recombinant human CETP protein (Homo sapiens (Human), UniProt P11597)
Test: Test of CETP inhibition activity (in vitro, buffer-based)
Assay type: biochemical
Settings: reconstituted HDL with [14C]-labeled cholesteryl ester, acceptor lipoprotein, 37° C.
Protocol: Test of CETP Inhibition Activity (In Vitro, Buffer-Based)
(1) Preparation of Reconstituted HDL
Cholesterol (1.125 μmol), phosphatidyl choline (4.5 μmol) and [^14C]-labeled cholesteryl ester (2.0 μCi; 40 μl) were taken in a glass test tube and well mixed with a vortex, and dried under a nitrogen gas current so that it formed a thin film. The obtained mixture was dissolved in ethanol (200 μl), which was designated as Solution A. A PBS solution [a mixed solution of Na2HPO4 (30 mM), KH2PO4 (8.8 mM), NaCl (60 mM) and EDTA (pH 7.4; 0.67 mM); 4 ml] was taken in a tube and the reaction solution was vigorously stirred with a vortex under a nitrogen current. The above-described Solution A was gently injected into this mixture with a syringe and the reaction solution was vigorously stirred with a vortex for 5 minutes under a nitrogen current. Sodium cholate ([…]; 0.38 ml) was added to the obtained mixture and the reaction solution was stirred for 2 minutes. ApoA-I protein (3 mg) was added to the obtained mixture and the reaction solution was stirred for 2 minutes. The obtained mixture was adjusted to 5 ml with the PBS solution and then dialyzed with the PBS solution. The obtained mixture was designated as the reconstituted HDL.
(2) Preparation of Acceptor Lipoprotein
NaBr was added to the plasma of a healthy person and the density of the mixture was adjusted to 1.019, and the mixture was subjected to density gradient centrifugation (40000 rpm, for 16 hours) to remove the fraction having a density of less than 1.019. NaBr was added to the obtained mixture and the density of the solution was adjusted to 1.063, and the solution was subjected to density gradient centrifugation (40000 rpm, 18 hours) to provide the fraction consisting of IDL (intermediate density lipoprotein) and LDL (1.019<density<1.063). The obtained fraction was dialyzed with the PBS solution. The obtained mixture was designated as the acceptor lipoprotein.
(3) Measurement of CETP Inhibition Activity
A recombinant human CETP protein (manufactured by Roar Biomedical Inc.; 4.5 ng), the acceptor lipoprotein described in (2) above (32.5 μg) and 5,5′-dithio-bis-(2-nitrobenzoic acid) (7 mM, 15 μl) were taken in a 96 well plate and the total amount of the mixture was adjusted to 48.5 μl with the PBS solution. The test compound [DMSO solution (concentration: 0.15, 0.5, 1.5, 5, 15, 50, 150 and 500 μM; 1.5 μl] was added to each well and the mixture was incubated in a thermostatic bath at 37° C. for 60 minutes. The reconstituted HDL (50 μl) described in (1) above was added to each well and the mixture was reacted in a thermostatic bath at 37° C. for 60 minutes. The 96 well plate was moved onto ice and a precipitation reagent [a mixed solution of magnesium chloride (60 mM) and 0.1% dextran sulfate [1/1 (v/v)]; 15 μl] was added to each well, and then the mixture was allowed to stand on ice for 15 minutes. The reaction solution (80 μl) in each well was moved to a filter plate and centrifuged at 1500 rpm for 1 minute, and the filtrate which passed through the filter was designated as the HDL fraction and the radioactivity thereof was measured with a scintillation counter. The percentage decrease in radioactivity in the case where the test compound was added in comparison with that in case where the test compound was not added was designated as the percentage CETP inhibition. The IC50 value was calculated from the percentage CETP inhibition.

recombinant human CETP protein, sequence (P11597 18-493): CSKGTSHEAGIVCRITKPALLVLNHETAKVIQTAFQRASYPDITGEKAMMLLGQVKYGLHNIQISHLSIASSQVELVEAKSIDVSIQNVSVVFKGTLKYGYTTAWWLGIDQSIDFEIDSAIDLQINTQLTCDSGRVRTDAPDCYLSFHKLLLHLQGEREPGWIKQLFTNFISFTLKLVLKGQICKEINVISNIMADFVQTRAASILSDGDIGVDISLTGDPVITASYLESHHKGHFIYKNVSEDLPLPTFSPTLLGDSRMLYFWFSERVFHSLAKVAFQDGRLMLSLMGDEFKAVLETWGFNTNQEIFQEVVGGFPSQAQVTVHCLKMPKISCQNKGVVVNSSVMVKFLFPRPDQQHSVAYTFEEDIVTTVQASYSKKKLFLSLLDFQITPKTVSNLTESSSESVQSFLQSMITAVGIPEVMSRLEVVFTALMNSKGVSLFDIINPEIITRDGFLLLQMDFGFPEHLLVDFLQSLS

| IC50 | Structure (SMILES) |
| --- | --- |
| 0.011 µM | CC1(C)Cc2nc(C3CCN(c4ncc(OC[C@H](O)CO)cn4)CC3)c([C@@H](F)c3ccc(C(F)(F)F)cc3)c(C3CCC(F)(F)CC3)c2[C@@H](O)C1 (single isomer, unassigned) [Example 40] |
| 0.054 µM | CC(C)/C=C/c1cnc(N2CCC(c3nc4c(c(C5CCC(F)(F)CC5)c3[C@@H](F)c3ccc(C(F)(F)F)cc3)[C@@H](O)CC(C)(C)C4)CC2)nc1 (single isomer, unassigned) [Example 34, (−)-4-(4,4-Difluorocyclohexyl)-3-{fluoro[4-(trifluoromethyl)phenyl]methyl}-7,7-dimethyl-2-(1-{5-[(1E)-3-methylbut-1-ene-1-yl]pyrimidin-2-yl}piperidin-4-yl)-5,6,7,8-tetrahydroquinolin-5-ol] |
| 0.078 µM | CC(C)OCc1cnc(N2CCC(c3nc4c(c(C5CCC(F)(F)CC5)c3[C@@H](F)c3ccc(C(F)(F)F)cc3)[C@@H](O)CC(C)(C)C4)CC2)nc1 (single isomer, unassigned) [Example 28, (−)-4-(4,4-difluorocyclohexyl)-3-{fluoro[4-(trifluoromethyl)phenyl]methyl}-7,7-dimethyl-2-(1-{5-[(propan-2-yloxy)methyl]pyrimidine-2-yl}piperidin-4-yl)-5,6,7,8-tetrahydroquinoline-5-ol] |
| 0.122 µM | CC1(C)Cc2nc(C3CCN(c4ncc(N5CCSCC5)cn4)CC3)c([C@@H](F)c3ccc(C(F)(F)F)cc3)c(C3CCC(F)(F)CC3)c2[C@@H](O)C1 (single isomer, unassigned) [Example 9, (−)-4-(4,4-Difluorocyclohexyl)-3-{fluoro[4-(trifluoromethyl)phenyl]methyl}-7,7-dimethyl-2-{1-[5-(thiomorpholin-4-yl)pyrimidin-2-yl]piperidin-4-yl}-5,6,7,8-tetrahydroquinolin-5-ol] |
| 0.088 µM | Cc1noc(-c2cnc(N3CCC(c4nc5c(c(C6CCC(F)(F)CC6)c4[C@@H](F)c4ccc(C(F)(F)F)cc4)[C@@H](O)CC(C)(C)C5)CC3)nc2)n1 (single isomer, unassigned) [Example 35, 4-(4,4-Difluorocyclohexyl)-3-{fluoro[4-(trifluoromethyl)phenyl]methyl}-7,7-dimethyl-2-{1-[5-(3-methyl-1,2,4-oxadiazol-5-yl)pyrimidin-2-yl]piperidin-4-yl}-5,6,7,8-tetrahydroquinolin-5-ol] |
| 0.008 µM | CC1(C)Cc2nc(C3CCN(c4ncc(OCC(CO)CO)cn4)CC3)c([C@@H](F)c3ccc(C(F)(F)F)cc3)c(C3CCC(F)(F)CC3)c2[C@@H](O)C1 (single isomer, unassigned) [Example 49, (−)-4-(4,4-Difluorocyclohexyl)-3-{fluoro[4-(trifluoromethyl)phenyl]methyl}-2-(1-{5-[3-hydroxy-2-(hydroxymethyl)propoxy]pyrimidin-2-yl}piperidin-4-yl)-7,7-dimethyl-5,6,7,8-tetrahydroquinolin-5-ol] |
| 0.032 µM | CC1(C)Cc2nc(C3CCN(c4ncc(OC[C@@H](O)CO)cn4)CC3)c([C@@H](F)c3ccc(C(F)(F)F)cc3)c(C3CCC(F)(F)CC3)c2[C@@H](O)C1 [Example 39, (−)-4-(4,4-Difluorocyclohexyl)-2-[1-(5-{[(2S)-2,3-dihydroxypropyl]oxy}pyrimidin-2-yl)piperidin-4-yl]-3-{fluoro[4-(trifluoromethyl)phenyl]methyl}-7,7-dimethyl-5,6,7,8-tetrahydroquinolin-5-ol] |
| 0.025 µM | C[C@H](O)COc1cnc(N2CCC(c3nc4c(c(C5CCC(F)(F)CC5)c3[C@@H](F)c3ccc(C(F)(F)F)cc3)[C@@H](O)CC(C)(C)C4)CC2)nc1 [Example 37, (−)-4-(4,4-Difluorocyclohexyl)-3-{fluoro[4-(trifluoromethyl)phenyl]methyl}-2-[1-(5-{[(2S)-2-hydroxypropyl]oxy}pyrimidin-2-yl)piperidin-4-yl]-7,7-dimethyl-5,6,7,8-tetrahydroquinolin-5-ol] |
| 0.032 µM | CNC(=O)c1cnc(N2CCC(c3nc4c(c(C5CCC(F)(F)CC5)c3[C@@H](F)c3ccc(C(F)(F)F)cc3)[C@@H](O)CC(C)(C)C4)CC2)nc1 (single isomer, unassigned) [Example 30, 4-(4,4-Difluorocyclohexyl)-3-{fluoro[4-(trifluoromethyl)phenyl]methyl}-7,7-dimethyl-2-{1-[5-(methylcarbamoyl)pyrimidin-2-yl]piperidin-4-yl}-5,6,7,8-tetrahydroquinolin-5-ol] |
| 0.217 µM | CC1(C)Cc2nc(C3CCN(c4ncc(C#N)cn4)CC3)c([C@@H](F)c3ccc(C(F)(F)F)cc3)c(C3CCC(F)(F)CC3)c2[C@@H](O)C1 (single isomer, unassigned) [Example 17, (−)-2-[1-(5-cyanopyrimidine-2-yl)piperidin-4-yl]-4-(4,4-difluorocyclohexyl)-3-{fluoro[4-(trifluoromethyl)phenyl]methyl}-7,7-dimethyl-5,6,7,8-tetrahydroquinoline-5-ol] |
| 0.25 µM | CC1(C)Cc2nc(C3CCN(c4ncc(N5CCOCC5)cn4)CC3)c([C@@H](F)c3ccc(C(F)(F)F)cc3)c(C3CCC(F)(F)CC3)c2[C@@H](O)C1 (single isomer, unassigned) [Example 5, (−)-4-(4,4-Difluorocyclohexyl)-3-{fluoro[4-(trifluoromethyl)phenyl]methyl}-7,7-dimethyl-2-{1-[5-(morpholin-4-yl)pyrimidin-2-yl]piperidin-4-yl}-5,6,7,8-tetrahydroquinolin-5-ol] |
| 0.255 µM | CC1(C)Cc2nc(C3CCN(c4ncc(CO)cn4)CC3)c([C@@H](F)c3ccc(C(F)(F)F)cc3)c(C3CCC(F)(F)CC3)c2[C@@H](O)C1 [Example 20, (−)-4-(4,4-Difluorocyclohexyl)-3-{fluoro[4-(trifluoromethyl)phenyl]methyl}-2-[1-[5-(hydroxymethyl)pyrimidin-2-yl]piperidin-4-yl]-7,7-dimethyl-5,6,7,8-tetrahydroquinolin-5-ol] |
| 0.097 µM | CC(C)Oc1cnc(N2CCC(c3nc4c(c(C5CCC(F)(F)CC5)c3[C@@H](F)c3ccc(C(F)(F)F)cc3)[C@@H](O)CC(C)(C)C4)CC2)nc1 (single isomer, unassigned) [Example 14, (−)-4-(4,4-Difluorocyclohexyl)-3-{fluoro[4-(trifluoromethyl)phenyl]methyl}-7,7-dimethyl-2-{1-[5-(propan-2-yloxy)pyrimidin-2-yl]piperidin-4-yl}-5,6,7,8-tetrahydroquinolin-5-ol] |
| 0.103 µM | CC(C)c1cnc(N2CCC(c3nc4c(c(C5CCC(F)(F)CC5)c3[C@@H](F)c3ccc(C(F)(F)F)cc3)[C@@H](O)CC(C)(C)C4)CC2)nc1 (single isomer, unassigned) [Example 12, 4-(4,4-Difluorocyclohexyl)-3-{fluoro[4-(trifluoromethyl)phenyl]methyl}-7,7-dimethyl-2-{1-[5-(propan-2-yl)pyrimidin-2-yl]piperidin-4-yl}-5,6,7,8-tetrahydroquinolin-5-ol] |

| Structure (SMILES) | IC50 |
| --- | --- |
| CC(C)(O)CCOc1cnc(N2CCC(c3nc4c(c(C5CCC(F)(F)CC5)c3[C@@H](F)c3ccc(C(F)(F)F)cc3)[C@@H](O)CC(C)(C)C4)CC2)nc1 (single isomer, unassigned) [Example 43, (−)-4-(4,4-Difluorocyclohexyl)-3-{fluoro[4-(trifluoromethyl)phenyl]methyl}-2-{1-[5-(3-hydroxy-3-methylbutoxy)pyrimidin-2-yl]piperidin-4-yl}-7,7-dimethyl-5,6,7,8-tetrahydroquinolin-5-ol] | 0.009 µM |
